Assay results taken from US20120046461A1, “STEROIDAL ANTI-HORMONE HYBRIDS” (Northeastern University, priority 2009, published 2012).
Where “and” joins values, the source holds several entries; their conditions need not be identical. Equal entries are not always repeated.

Tests used:
[1] = test system: alkaline phosphatase in Ishikawa cells; test: Inhibition of E2-stimulated alkaline phosphatase in Ishikawa cells; type: cell-based, human; details: Ki determined in the presence of I nm E2
Description: (§1) The induction of AlkP in human endometrial adenocarcinoma cells (Ishikawa) grown in 96-well microtiter plates was performed as described. The cells were grown in Phenol red-free medium with estrogen-depleted (charcoal stripped) bovine serum in the presence or absence of varying amounts of the steroids across a dose range of at least 6 orders of magnitude. After 3 days, the cells were washed, frozen, thawed, and then incubated with 5 mM p-nitrophenyl phosphate, a chromogenic substrate for the AlkP enzyme, at pH 9.8. To ensure linear enzymatic analysis, the plates were monitored kinetically for the production of p-nitrophenol at 405 nm.
(§2) Each compound was analyzed in at least 3 separate experiments performed in duplicate. The Ki and RSA (RSA=ratio of 1/EC50 of the steroid analog to that of E2×100) were determined using the curve fitting program Prism. The results are shown below in FIGS. 1A-1C, 2, 3, and 4.

[2] = test system: alkaline phosphatase in Ishikawa cells; test: Stimulation of alkaline phosphatase in Ishikawa cells (estrogenic potency); type: cell-based, human; details: for Ishikawa - RSA: relative stimulatory activity in comparison to E2 = 100%
Description: The methodology for determining estrogenic potency, estrogen receptor binding, and stimulation of an estrogen responsive gene in alkaline phosphatase in the Ishikawa cell was performed as described. (Stabile, et al. (2005) Cancer Res. 65:1459-1470; Perez-Soler (2007) Clin. Can. Res. 13(Suppl. 15):[…]; Nicholson, et al. (2000) British J. Cancer 82:501-513; Schiff, et al. (2004) Clin. Can. Res. 10 (supp.1):331s-336s).
as §1, §2

[3] = test system: SKBr3 cells; test: Anti-proliferative assay (MTS/PMS), SKBr3; type: cell-based; details: 72 h
Description: (§3) MCF-7 and SKBr3 cells were maintained in a 1:1 mixture of Advanced DMEM/F12 (Gibco) supplemented with nonessential amino acids, L-glutamine (2 mM), streptomycin ([…]), penicillin (100 units/mL), and 10% FBS. Cells were grown to confluence in a humidified atmosphere (37° C., 5% CO2), seeded (2000/well, 100 μL) in 96-well plates, and allowed to attach overnight. Compound or GDA at varying concentrations in DMSO (1% DMSO final concentration) was added, and cells were returned to the incubator for 72 h. At 72 h, the number of viable cells was determined using an MTS/PMS cell proliferation kit (Promega) per the manufacturer's instructions. Cells incubated in 1% DMSO were used as 100% proliferation, and values were adjusted accordingly. IC50 values were calculated from separate experiments performed in triplicate using GraphPad Prism.

[4] = test system: MCF-7 cells; test: Anti-proliferative assay (MTS/PMS), MCF-7; type: cell-based; details: 72 h
Description: as §3

[5] = test system: MCF-7 (ER-positive) breast cancer cell line; test: Cellular proliferation of MCF-7 (ER-positive) breast cancer cells, mitomycin series; type: cell-based; details: MCF-7 cells, FIG. 2, 4, 5
Description: Another series of biological assays (Litzenburger, et al., Clin. Can. Res. (2009) 15:226 and Georghis, et al., Can. Chemothera. Pharmacol. (1992) 29:290.) are run to evaluate the effect of the mitomycin moiety on cellular proliferation of MCF-7 (ER-positive) and MDA-231 (ER-negative) breast cancer cell lines.

[6] = target: T1, Human LBD-ERβ (Homo sapiens, UniProt Q92731); test: Competitive binding to ERβ (RBA); details: for RBA ERβ: RBA against E2
T1 construct: Human LBD-ERα and Human LBD-ERβ
Description: (§4) A. Competitive Binding to Rat Cytosolic ER, Human LBD-ERα and Human LBD-ERβ
Biological evaluation used competitive binding assays with estradiol on the ERα-LBD. Binding affinities of the estradiol derivatives relative to E, were performed in incubations with the LBD of ERα. in lysates of Escherichia coli in which the LBD of human ERα (M250-V595) is expressed as described in Antonello, et al. (J. Med. Chem. (2006) 49:6642-6645), Morphy, et al. (J. Med. Chem. (2006), 49:4961-4970); Meunier (Accounts Chem. Res. (2007), and Ojima (Accounts Chem. Res. (2007). The assay was perfoiiued overnight in phosphate buffered saline +1 mM EDTA at RT. The competition for binding of [^3H]E2 to the LBD of the E2-derivatives in comparison to E2, relative binding affinity (RBA) was determined over a range of concentrations from 10^−12 to 10^−6M. After incubation, the media was aspirated, the plates were washed 3 times, and the receptor-bound radioactivity absorbed to the plates was extracted with methanol and counted.
(§5) The ability of the described ERα ligands to bind to the ER was determined through their RBA against E2, in the competitive binding assay described above.

[7] = target: T2, LBD of human ERα (M250-V595) (Homo sapiens, UniProt P03372); test: Competitive binding of [3H]E2 to ERα-LBD (RBA); details: RBA against E2
T2 construct: the LBD of human ERα (M250-V595) is expressed; made in house; host or cells: Escherichia coli (lysates)
T2 sequence (P03372 250-595): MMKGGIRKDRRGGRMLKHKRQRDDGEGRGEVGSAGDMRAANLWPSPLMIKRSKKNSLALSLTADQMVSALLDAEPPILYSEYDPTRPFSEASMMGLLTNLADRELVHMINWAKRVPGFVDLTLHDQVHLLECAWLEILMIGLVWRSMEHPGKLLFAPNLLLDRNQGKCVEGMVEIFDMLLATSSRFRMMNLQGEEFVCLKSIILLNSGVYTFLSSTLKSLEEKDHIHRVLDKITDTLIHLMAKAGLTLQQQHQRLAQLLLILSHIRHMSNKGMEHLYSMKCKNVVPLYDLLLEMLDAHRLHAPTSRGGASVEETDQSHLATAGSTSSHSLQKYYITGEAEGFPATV
Description: as §4
Biological evaluation used competitive binding assays with estradiol on the ERα-LBD. […] After incubation, the media was aspirated, the plates were washed 3 times, and the receptor-bound radioactivity absorbed to the plates was extracted with methanol and counted.
as §5

T1 sequence (Q92731 264-498 limits assumed): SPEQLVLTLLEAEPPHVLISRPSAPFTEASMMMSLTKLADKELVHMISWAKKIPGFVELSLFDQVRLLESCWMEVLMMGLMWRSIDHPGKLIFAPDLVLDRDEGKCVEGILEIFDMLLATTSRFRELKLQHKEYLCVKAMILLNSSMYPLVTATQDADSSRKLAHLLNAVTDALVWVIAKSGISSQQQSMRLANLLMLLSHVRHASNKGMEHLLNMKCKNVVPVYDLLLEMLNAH

“N-propargyl-N′-methyl-mitomycin C [EH-N9-006]” was tested, and the Ki [1] was 0.04 ± 0.004 µM and the “Ishikawa - RSA” value [2] was 0%.

“Geldanamycin-aminomethyl-triazolo-ethoxy Anti-Estrogen [Compound 3-13]” was tested, and the EC50 [3] was 0.71 ± 0.16 µM and the EC50 [4] was 1.2 ± 0.09 µM.

For `CO[C@@]12[C@H](COC(N)=O)C3=C(C(=O)C(C)=C(N)C3=O)N1C[C@@H]1N[C@@H]12` [mitomycin C], the “anti-proliferative response” value [5] was “more potent in the MCF-7 vs. the MDA-231 cell lines”.

“Estradiol [Compound E2, reference compound]” gave an EC50 ([2]; Ishikawa cells, read-out: EC50 of E2, alkaline phosphatase induction) of about 0.0002 µM.

Work on “Geldanamycin-aminoheptaethylene glycolyl-triazolo-methylaminoethoxy Anti-Estrogen [Compound 3-15]” yielded an EC50 [4] of 0.102 ± 0.005 µM.

Work on “Geldanamycin aminopentanamidocarbonylphenyl-methyl difluorocyclooctenyltriazolo-ethoxy Anti-Estrogen [Compound 3-17]” yielded an EC50 [4] of 17 µM.

`C[C@]12C[C@H](c3ccc(OCCOCCOCCN=[N+]=[N-])cc3)[C@@H]3c4ccc(O)cc4CC[C@H]3[C@@H]1CC[C@@H]2O` [EH-N7-092, 11β-[4-(ω-azido-triethyleneglycoloxy)]-phenyl-estradiol] was tested, and the “Ishikawa - RSA” value [2] was 0%.

For `C[C@]12C[C@H](c3ccc(OCCN=[N+]=[N-])cc3)[C@@H]3c4ccc(O)cc4CC[C@H]3[C@@H]1CC[C@@H]2O` [Compound 2-13, (8S,9R,11S,13S,14S,17S)-11-(4-(2-azidoethoxy)phenyl)-7,8,9,11,12,13,14,15,16,17-decahydro-13-methyl-6H-cyclopenta[a]phenanthrene-3,17-diol], the “ER-subtype selectivity” value ([6]; ERα vs ERβ) was “does not differentiate between ERα and ERβ”, the “RBA ERβ” value [6] was 33.7±1.77 and the “RBA ERβ” value ([6]; listed as drawing 40) was 33.7 ± 1.77. For the same compound, the β/α ([6]; ratio of RBA ERβ to RBA ERα) was 0.86, the “RBA ERα” value [7] was 39.3±9.0 and 39.3 and the “RBA ERα” value ([7]; listed as drawing 40) was 39.3 ± 9.0.
